# Values quoted from earlier work as cited in patent publication US20190328719A1, “METHODS OF TREATING DEVELOPMENTAL DISORDERS AND/OR SEIZURE DISORDERS WITH FLUPIRTINE” (Ovid Therapeutics Inc., priority 2016, published 2019).
# Counter-ions that a name gives are not always drawn. Like-named read-outs stand apart in the source and are kept apart here.
# Columns and labels:
# [1] = cited from earlier work; for plasma elimination half-life: healthy young volunteers, single dose
# [2] = cited from earlier work
# [3] = patients with a history of drug abuse; cited from earlier work
# [4] = three-month efficacy study, insomnia; cited from earlier work
# [5] = cited from earlier work; for Cmax (without correction for Cmin): 14 days of administration
# [6] = cited from earlier work; remark: listed apart in the source
# [7] = cited from earlier work; remark: listed apart in the source
# [8] = dose range 200-400 mg three times daily
compound,measurement,setting,value
CCOC(=O)Nc1ccc(NCc2ccc(F)cc2)nc1N [flupirtine maleate],Cmax,"[1]; rectal, flupirtine maleate 150 mg",about 0.89 mg/L
same,water solubility,[2]; listed as maleate salt,water soluble
CCOC(=O)Nc1ccc(NCc2ccc(F)cc2)nc1N [flupirtine],time to steady-state plasma concentrations,[1]; 75 or 150 mg at 12 hour intervals,2 days
same,plasma elimination half-life,[1]; intravenous,about 8.5 hours
same,plasma elimination half-life,[1]; oral,~9.6 h
same,plasma elimination half-life,[1]; rectal,~10.7 h
same,half-life following intravenous administration,[1]; intravenous,about 1.8 hours
same,relation of plasma concentrations to dose,[1]; range of 50 to 300 mg,linearly related to dose
same,Bioavailability,"[1]; rectal dose, in comparison with intravenous flupirtine tartrate 80 mg",about 72.5%
same,time until it appears in the plasma,"[1]; single oral dose 100 mg or 200 mg, healthy volunteers",15 to 30 min
same,peak plasma concentration (Cmax),[1]; single oral dose 100 mg,approximately 0.8 mg/L
same,peak plasma concentration (Cmax),[1]; single oral dose 200 mg,~2000 ng/mL
same,water solubility,[2],poorly water soluble
"Oc1noc2c1CCNC2 [gaboxadol, 4,5,6,7-tetrahydroisoxazolo [5,4-c]pyridine-3-ol]",psychiatric adverse events,[3],steep increase in psychiatric adverse events
same,effects in sleep onset and sleep maintenance,[4],failed to show significant effects in sleep onset and sleep maintenance
CC(=O)[C@H]1CC[C@H]2[C@@H]3CC[C@H]4C[C@](C)(O)CC[C@]4(C)[C@H]3CC[C@]12C [ganaxolone],Cmin,[5]; 50 mg group,2.34 ng/mL
same,Cmin,[5]; 200 mg group,23.79 ng/mL
same,Cmin,[5]; 500 mg group,56.71 ng/mL
same,Cmax (without correction for Cmin),[5]; 50 mg group,32 ng/mL
same,Cmax (without correction for Cmin),[5]; 200 mg group,106 ng/mL
same,Cmax (without correction for Cmin),[5]; 500 mg group,376 ng/mL
same,AUC and Cmax with increasing dose,[5]; in vivo,linear and proportional increase
same,half-life,[5]; in vivo,about 20 hours
same,Cmax,[5]; single 900 mg dose,293 ± 63.8 ng/mL
OC(c1ccccc1)(c1ccccc1)C1CCCCN1 (stereo not drawn) [pipradrol],effects of high doses,[6],"uncoordinated activity and ataxia, followed by tremors and clonic convulsions"
"CCOC(=O)Nc1ccc(NCc2ccc(F)cc2)cc1N [retigabine, N-[2-amino-4-(4-fluorobenzylamino)-phenyl] carbamic acid ethyl ester]",between-subject variability,[7]; [8],35-50%
same,linearity of pharmacokinetics,[7]; [8],linear
same,elimination half-lives (t/2),[7]; in vivo,7 to 11 h
same,median plasma half-life,[7]; in vivo,6 to 8 h
same,Absolute oral bioavailability,[7]; relative to an intravenous dose,approximately 60%
